Reference: publication PMC12198282, “Application of a high-density microelectrode array assay using a 3D human iPSC-derived brain microphysiological system model for in vitro neurotoxicity screening of environmental compounds” (Archives of Toxicology, 2025)
Entries after “also recorded” stand apart in the source; their conditions may differ. Where two headings read alike, the source gives them in different places.

Assays:
2D rat cortical cultures [1] = settings: cited from earlier work
2D rat cortical cultures [2] = settings: rNFA mc5 hit call; cytotoxicity LDH; cited from earlier work
[3] = system: human iPSC-derived 3D BrainSpheres; assay: BrainSphere MEA assay (HD-MEA, 13-day exposure, concentration-response); format: cell-based; settings: for EC (benchmark response 1.349 SD) / AC50: Homo sapiens; for EC (benchmark response 1.349 SD): 312 h; for hitc Mean.Spheroid.Burst.Duration: key: 1 (active); 0 (inactive); for hitc Mean.Spheroid.Burst.ISI: key: 1 (active); 0 (inactive); for hitc Mean.Spheroid.Burst.Peak.Firing.Rate: key: 1 (active); 0 (inactive); for hitc Mean.Spheroid.Firing.Rate: key: 1 (active); 0 (inactive); for hitc Mean.Spheroid.IBI: key: 1 (active); 0 (inactive); for hitc Mean.Spheroid.Nonburst.ISI: key: 1 (active); 0 (inactive); for hitc Mean.Spheroid.Spikes.per.Burst.per.Electrode: key: 1 (active); 0 (inactive); for hitc Mean.Spheroid.Spikes.per.Burst: key: 1 (active); 0 (inactive); for hitc Spheroid.Burst.Frequency: key: 1 (active); 0 (inactive); for hitc Spheroid.Spike.Amplitude.90th.Percentile: key: 1 (active); 0 (inactive)
How it was run: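 Recordings used a 5× RMS spike threshold and 600 s network scans of fixed electrode regions, each region clustered as one BrainSphere. Spheres had 7 weeks of differentiation and 48 h attachment on coated HD-MEA chips before day 0 of the 13-day concentration-response exposure. At least three independent plates were run.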

2D rat cortical cultures [4] = settings: rNFA mc5 hit call; cytotoxicity AlamarBlue; cited from earlier work
Throughout, for hitc CCTE Shafer MEA dev active electrodes number: key: 1 (active); 0 (inactive).
Throughout, for hitc CCTE Shafer MEA dev burst duration mean: key: 1 (active); 0 (inactive).
Throughout, for hitc CCTE Shafer MEA dev burst rate: key: 1 (active); 0 (inactive).
Throughout, for hitc CCTE Shafer MEA dev bursting electrodes number: key: 1 (active); 0 (inactive).
Throughout, for hitc CCTE Shafer MEA dev correlation coefficient mean: key: 1 (active); 0 (inactive).
Throughout, for hitc CCTE Shafer MEA dev firing rate mean: key: 1 (active); 0 (inactive).
Throughout, for hitc CCTE Shafer MEA dev inter network spike interval mean: key: 1 (active); 0 (inactive).
Throughout, for hitc CCTE Shafer MEA dev interburst interval mean: key: 1 (active); 0 (inactive).
Throughout, for hitc CCTE Shafer MEA dev mutual information norm: key: 1 (active); 0 (inactive).
Throughout, for hitc CCTE Shafer MEA dev network spike duration std: key: 1 (active); 0 (inactive).
Throughout, for hitc CCTE Shafer MEA dev network spike number: key: 1 (active); 0 (inactive).
Throughout, for hitc CCTE Shafer MEA dev network spike peak: key: 1 (active); 0 (inactive).
Throughout, for hitc CCTE Shafer MEA dev per burst interspike interval: key: 1 (active); 0 (inactive).
Throughout, for hitc CCTE Shafer MEA dev per burst spike percent: key: 1 (active); 0 (inactive).
Throughout, for hitc CCTE Shafer MEA dev per network spike spike number mean: key: 1 (active); 0 (inactive).
Throughout, for hitc CCTE Shafer MEA dev per network spike spike percent: key: 1 (active); 0 (inactive).
Throughout, for hitc CCTE Shafer MEA dev spike duration mean: key: 1 (active); 0 (inactive).

CC1(C)S[C@@H]2[C@H](NC(=O)[C@H](N)c3ccc(O)cc3)C(=O)N2[C@H]1C(=O)O [Amoxicillin]
hitc CCTE_Shafer_MEA_dev_active_electrodes_number (2D rat cortical cultures [1]; rNFA mc5 hit call, aenm active_electrodes_number): 0 | hitc CCTE_Shafer_MEA_dev_burst_duration_mean (2D rat cortical cultures [1]; rNFA mc5 hit call, aenm burst_duration_mean): 0 | hitc CCTE_Shafer_MEA_dev_burst_rate (2D rat cortical cultures [1]; rNFA mc5 hit call, aenm burst_rate): 0 | hitc CCTE_Shafer_MEA_dev_bursting_electrodes_number (2D rat cortical cultures [1]; rNFA mc5 hit call, aenm bursting_electrodes_number): 0 | hitc CCTE_Shafer_MEA_dev_correlation_coefficient_mean (2D rat cortical cultures [1]; rNFA mc5 hit call, aenm correlation_coefficient_mean): 0 | hitc CCTE_Shafer_MEA_dev_firing_rate_mean (2D rat cortical cultures [1]; rNFA mc5 hit call, aenm firing_rate_mean): 0 | hitc CCTE_Shafer_MEA_dev_inter_network_spike_interval_mean (2D rat cortical cultures [1]; rNFA mc5 hit call, aenm inter_network_spike_interval_mean): 0 | hitc CCTE_Shafer_MEA_dev_interburst_interval_mean (2D rat cortical cultures [1]; rNFA mc5 hit call, aenm interburst_interval_mean): 0 | hitc CCTE_Shafer_MEA_dev_mutual_information_norm (2D rat cortical cultures [1]; rNFA mc5 hit call, aenm mutual_information_norm): 0 | hitc CCTE_Shafer_MEA_dev_network_spike_duration_std (2D rat cortical cultures [1]; rNFA mc5 hit call, aenm network_spike_duration_std): 0 | hitc CCTE_Shafer_MEA_dev_network_spike_number (2D rat cortical cultures [1]; rNFA mc5 hit call, aenm network_spike_number): 0 | hitc CCTE_Shafer_MEA_dev_network_spike_peak (2D rat cortical cultures [1]; rNFA mc5 hit call, aenm network_spike_peak): 0 | hitc CCTE_Shafer_MEA_dev_per_burst_interspike_interval (2D rat cortical cultures [1]; rNFA mc5 hit call, aenm per_burst_interspike_interval): 0 | hitc CCTE_Shafer_MEA_dev_per_burst_spike_percent (2D rat cortical cultures [1]; rNFA mc5 hit call, aenm per_burst_spike_percent): 0 | hitc CCTE_Shafer_MEA_dev_per_network_spike_spike_number_mean (2D rat cortical cultures [1]; rNFA mc5 hit call, aenm per_network_spike_spike_number_mean): 0 | hitc CCTE_Shafer_MEA_dev_per_network_spike_spike_percent (2D rat cortical cultures [1]; rNFA mc5 hit call, aenm per_network_spike_spike_percent): 0 | hitc CCTE_Shafer_MEA_dev_spike_duration_mean (2D rat cortical cultures [1]; rNFA mc5 hit call, aenm spike_duration_mean): 0 | Bioactivity in the rNFA (in words) (2D rat cortical cultures [1]; ref Brown et al. [2016], Carstens et al. [2022], Frank et al. [2017b], Shafer et al. [2019], ToxCast invitrodb (v4.2)): negative in the rNFA; also recorded: inactive in the rNFA; also recorded: inactivity across all metrics in both models | hitc CCTE_Shafer_MEA_dev_LDH (2D rat cortical cultures [2]): 0 | BMD Spheroid.Burst.Frequency [3]: 448 µM | Bioactivity across the 10 MEA endpoints of the BrainSphere MEA assay (in words) [3]: inactive across all metrics; also recorded: inactivity across all metrics in both models | Hits [3]: 0 | Percent active [3]: 0% | hitc Mean.Spheroid.Burst.Duration [3]: 0 | hitc Mean.Spheroid.Burst.ISI [3]: 0 | hitc Mean.Spheroid.Burst.Peak.Firing.Rate [3]: 0 | hitc Mean.Spheroid.Firing.Rate [3]: 0 | hitc Mean.Spheroid.IBI [3]: 0 | hitc Mean.Spheroid.Nonburst.ISI [3]: 0 | hitc Mean.Spheroid.Spikes.per.Burst [3]: 0 | hitc Mean.Spheroid.Spikes.per.Burst.per.Electrode [3]: 0 | hitc Spheroid.Burst.Frequency [3]: 0 | hitc Spheroid.Spike.Amplitude.90th.Percentile [3]: 0 | EC (benchmark response 1.349 SD) ([3]; read-out: BMD Mean.Spheroid.Burst.ISI): 1440 µM | EC (benchmark response 1.349 SD) ([3]; read-out: BMD Mean.Spheroid.Nonburst.ISI): 620 µM | AC50 ([3]; read-out: ac50 Mean.Spheroid.Burst.Duration): 220 nM | AC50 ([3]; read-out: ac50 Mean.Spheroid.Burst.ISI): 45000 nM | AC50 ([3]; read-out: ac50 Mean.Spheroid.Burst.Peak.Firing.Rate): 29 nM | AC50 ([3]; read-out: ac50 Mean.Spheroid.IBI): 63 nM | AC50 ([3]; read-out: ac50 Mean.Spheroid.Spikes.per.Burst): 10 nM | AC50 ([3]; read-out: ac50 Mean.Spheroid.Spikes.per.Burst.per.Electrode): 36 nM | AC50 ([3]; read-out: ac50 Spheroid.Spike.Amplitude.90th.Percentile): 130 nM | hitc CCTE_Shafer_MEA_dev_AB (2D rat cortical cultures [4]): 0
